Measurements reported in the NIST ThermoML archive (doi:10.1016/j.jct.2005.07.009).

Assays:
[1] = excess molar enthalpy (molar enthalpy of mixing); xn = mol fraction of the nth substance listed; conditions: 298.15 K, 101 kPa, Liquid
[2] = xn = mol fraction of the nth substance listed; conditions: 298.15 K, 101 kPa, Liquid, Vibrating tube method
[3] = 295.15 K; 101.33 kPa; Liquid; Vibrating tube method
[4] = refractive index (Na D-line) (dimensionless); conditions: 298.15 K; 101.33 kPa; Liquid; Standard Abbe refractometry

BrCCCCCBr [1,5-dibromopentane] + CCCC(=O)OCC
Conditions	excess molar enthalpy [kcal/mol]	mass density [kg/m3]
[1], x2 = 0.0632	0.00545	–
[1], x2 = 0.1296	0.00906	–
[1], x2 = 0.1974	0.0117	–
[1], x2 = 0.2617	0.012	–
[1], x2 = 0.3247	0.0105	–
[1], x2 = 0.3843	0.00777	–
[1], x2 = 0.4396	0.00466	–
[1], x2 = 0.4909	0.000693	–
[1], x2 = 0.5367	-0.00239	–
[1], x2 = 0.5745	-0.00511	–
[1], x2 = 0.6072	-0.00657	–
[1], x2 = 0.6211	-0.00755	–
[1], x2 = 0.6798	-0.00937	–
[1], x2 = 0.7429	-0.0104	–
[1], x2 = 0.8114	-0.00944	–
[1], x2 = 0.878	-0.00696	–
[1], x2 = 0.9431	-0.00356	–
[2], x2 = 0.059	–	1646.96
[2], x2 = 0.1242	–	1594.68
[2], x2 = 0.1821	–	1548
[2], x2 = 0.238	–	1502.9
[2], x2 = 0.3008	–	1451.99
[2], x2 = 0.4202	–	1354.48
[2], x2 = 0.5373	–	1258.57
[2], x2 = 0.5953	–	1210.74
[2], x2 = 0.6536	–	1162.53
[2], x2 = 0.7109	–	1115.08
[2], x2 = 0.7685	–	1067.15
[2], x2 = 0.8314	–	1014.81
[2], x2 = 0.8895	–	966.17

CCCCC(=O)OCC [ethyl pentanoate] + BrCCBr
Conditions	excess molar enthalpy [kcal/mol]	mass density [kg/m3]
[1], x1 = 0.0286	0.00476	–
[1], x1 = 0.0632	0.0075	–
[1], x1 = 0.103	0.00966	–
[1], x1 = 0.1465	0.0103	–
[1], x1 = 0.1918	0.0102	–
[1], x1 = 0.2375	0.00848	–
[1], x1 = 0.2837	0.00418	–
[1], x1 = 0.3283	-0.00098	–
[1], x1 = 0.3711	-0.00485	–
[1], x1 = 0.4026	-0.00825	–
[1], x1 = 0.4465	-0.0112	–
[1], x1 = 0.4938	-0.0142	–
[1], x1 = 0.5538	-0.0165	–
[1], x1 = 0.6297	-0.0178	–
[1], x1 = 0.7132	-0.0175	–
[1], x1 = 0.8085	-0.0143	–
[1], x1 = 0.9099	-0.00844	–
[2], x1 = 0.0379	–	2085.1
[2], x1 = 0.0766	–	2004.73
[2], x1 = 0.1567	–	1851.43
[2], x1 = 0.1993	–	1776.2
[2], x1 = 0.2427	–	1703.76
[2], x1 = 0.2945	–	1622.25
[2], x1 = 0.3695	–	1512.8
[2], x1 = 0.5222	–	1317.39
[2], x1 = 0.6601	–	1166.3
[2], x1 = 0.7313	–	1096.12
[2], x1 = 0.8119	–	1022.28
[2], x1 = 0.9074	–	941.5

BrCCBr [1,2-dibromoethane] + CCOC(=O)CC
Conditions	excess molar enthalpy [kcal/mol]	mass density [kg/m3]
[1], x2 = 0.0408	0.00294	–
[1], x2 = 0.0876	0.00552	–
[1], x2 = 0.1399	0.00636	–
[1], x2 = 0.1925	0.00495	–
[1], x2 = 0.2463	0.00124	–
[1], x2 = 0.3001	-0.00495	–
[1], x2 = 0.3515	-0.0114	–
[1], x2 = 0.3996	-0.0181	–
[1], x2 = 0.4154	-0.0205	–
[1], x2 = 0.4446	-0.0241	–
[1], x2 = 0.4644	-0.0276	–
[1], x2 = 0.486	-0.0301	–
[1], x2 = 0.522	-0.0345	–
[1], x2 = 0.5865	-0.0383	–
[1], x2 = 0.6595	-0.0372	–
[1], x2 = 0.7397	-0.0331	–
[1], x2 = 0.827	-0.0259	–
[1], x2 = 0.9159	-0.0163	–
[2], x2 = 0.0479	–	2086.59
[2], x2 = 0.0959	–	2007.68
[2], x2 = 0.1904	–	1859.96
[2], x2 = 0.2852	–	1720.53
[2], x2 = 0.3448	–	1636.9
[2], x2 = 0.4532	–	1492.57
[2], x2 = 0.5156	–	1413.6
[2], x2 = 0.5836	–	1330.59
[2], x2 = 0.6423	–	1261.58
[2], x2 = 0.7044	–	1190.86
[2], x2 = 0.7717	–	1116.79
[2], x2 = 0.8366	–	1047.86
[2], x2 = 0.9155	–	967.12

BrCCCBr [1,3-dibromopropane] + CCOC(C)=O
Conditions	excess molar enthalpy [kcal/mol]	mass density [kg/m3]
[1], x2 = 0.0601	0.0131	–
[1], x2 = 0.127	0.0223	–
[1], x2 = 0.195	0.0295	–
[1], x2 = 0.2607	0.0333	–
[1], x2 = 0.3258	0.0342	–
[1], x2 = 0.3855	0.0332	–
[1], x2 = 0.4407	0.0304	–
[1], x2 = 0.4829	0.0271	–
[1], x2 = 0.487	0.0269	–
[1], x2 = 0.5298	0.0219	–
[1], x2 = 0.5741	0.0169	–
[1], x2 = 0.628	0.0109	–
[1], x2 = 0.687	0.00531	–
[1], x2 = 0.7498	0.000765	–
[1], x2 = 0.8153	-0.00174	–
[1], x2 = 0.8813	-0.00241	–
[1], x2 = 0.9434	-0.00136	–
[2], x2 = 0.057	–	1910.48
[2], x2 = 0.1189	–	1845.49
[2], x2 = 0.1785	–	1782.59
[2], x2 = 0.2647	–	1691.31
[2], x2 = 0.3199	–	1632.54
[2], x2 = 0.4187	–	1526.9
[2], x2 = 0.466	–	1476.19
[2], x2 = 0.5091	–	1429.89
[2], x2 = 0.6323	–	1296.79
[2], x2 = 0.6746	–	1250.93
[2], x2 = 0.7715	–	1145.6
[2], x2 = 0.8309	–	1080.67
[2], x2 = 0.8892	–	1016.69
[2], x2 = 0.9615	–	937.08

BrCCCCCBr [1,5-dibromopentane]
Conditions	mass density [kg/m3]	refractive index
[3]	1694.09	–
[4]	–	1.5099
